Experimental findings from ChEMBL document CHEMBL1201862, “PubChem BioAssay data set” (2004) are described below.

Test in all cases: DTP human tumour cell line panel, 48 h
Experiment [1] relates to HOP-18.
The test system of experiment [2] is KM-20L2.
Experiment [3] deals with DMS-114.
For experiment [4], the system named is DMS-273.
The subject of experiment [5] is RXF 631.
For experiment [6], the system named is SNB-78.
Experiment [7] relates to M19-MEL.
Experiment [8] has as its system DLD-1.
Experiment [9] deals with XF498.

SMILES strings stand for the structures.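 1) Cells in 96-well plates. 2) Compound, 48 h, 5 concentrations. 3) Linear interpolation between surrounding doses. 4) Unreached endpoint = highest concentration. GI50: concentration for 50% inhibition of growth.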 Activity calls are given as the source filed them. Cut-off read from the data, not from the text of the source: active = GI50 up to about 1.1 µM and inactive = higher. Where only a bound is given, the exact number is not on record here.

The term GI50 denotes the concentration that inhibits growth by half. Take `O=C1c2ccccc2C(=O)c2c1ccc1conc21`: the GI50 is 13.4 µM (inactive) in experiment [1]; 15.4 µM (inactive) in experiment [2]; 1.83 µM (inactive) in [3]; 3.44 µM (inactive) in experiment [4]; 2.85 µM (inactive) in experiment [5]; 2.84 µM (inactive) in experiment [6]. Also, the results for the GI50 in experiment [7] and in experiment [8] were 1.32 µM (inactive) and 2.55 µM (inactive), respectively.

As to `O=C(OCCCl)C1OC(n2cc(F)c(=O)[nH]c2=O)CC1O` (configuration not stated), the GI50 in experiment [1], in experiment [9], in experiment [2], in experiment [3], in [6] and in experiment [7] was > 100 µM (inactive) throughout. Further, the GI50 in [8] is > 100 µM (inactive).

With `COc1cc(Cl)cc(O)c(=O)c1OC`, the GI50 in [1] was 71.6 µM (inactive); in experiment [9], > 59.8 µM (inactive); in [2], 37.9 µM (inactive); in experiment [3], 24 µM (inactive); in experiment [4], 32.2 µM (inactive); in [6] it was 16.9 µM (inactive). In addition, the GI50 is 45.8 µM (inactive) in [7] and 37.3 µM (inactive) in experiment [8].

Regarding `N#CCCN(CCC#N)c1ccc(/C=C2\N=C(CN3C(=O)c4ccccc4C3=O)OC2=O)cc1`, the GI50 in [9], in [2], in experiment [3], in experiment [4], in experiment [5] and in [7] was > 100 µM (inactive) each time.

Turning to `COC(=O)C1CC(c2ccc(Cl)cc2)=NO1` (configuration not stated), the GI50 in [1], in experiment [2], in experiment [3], in [4], in [6] and in [7] was > 100 µM (inactive) each time. Further, in experiment [8], the GI50 was > 100 µM (inactive).

For the compound `Cc1ccc(NCC(=O)N2CC(=O)Nc3ccccc32)cc1`, the GI50 is > 100 µM (inactive) in experiment [1]; 75.7 µM (inactive) in experiment [9]; > 100 µM (inactive) in [2]; > 100 µM (inactive) in [3]; > 100 µM (inactive) in [4]; > 100 µM (inactive) in [6]. The GI50 in experiment [7] and in experiment [8] was > 100 µM (inactive) throughout.

On to `Cc1cc(C)nc(NS(=O)(=O)c2ccc(Nc3c4ccc(Cl)cc4nc4c(C(=O)NCCN(C)C)cccc34)cc2)n1`, for which the GI50 in [9], in experiment [2], in experiment [3], in experiment [4], in [5] and in [6] was > 100 µM (inactive) throughout. Further, the GI50 in experiment [7] and in experiment [8] was > 100 µM (inactive) in each case.

As to `CN(C)CCNC(=O)c1ccc(C(=O)NCCN(C)C)c2nc3ccccc3cc12`, the GI50 in [1] was 1.95 µM (inactive); in [2], 0.568 µM (active); in [3], 0.553 µM (active); in [4], 0.538 µM (active); in experiment [5] it was 1 µM (active); in experiment [6] it was 1.05 µM (active). The figures for the GI50 in [7] and in experiment [8] were 0.8 µM (active) and 0.516 µM (active), respectively.

Turning to `NCCCCCS(=O)(=O)O`, the GI50 in [1], in experiment [2], in experiment [3], in experiment [4], in [5] and in experiment [6] was > 100 µM (inactive) each time. Moreover, the GI50 in experiment [7] and in experiment [8] was > 100 µM (inactive) each time.

For the compound `COc1ccc(/C=C/c2onc3c(=O)n(C)nc(-c4ccccc4)c23)cc1`, the GI50 was > 100 µM (inactive) in [1]; 37 µM (inactive) in experiment [9]; > 100 µM (inactive) in experiment [2]; > 100 µM (inactive) in [3]; > 100 µM (inactive) in [4]; > 100 µM (inactive) in [7]. Also, the GI50 in [8] was > 100 µM (inactive).

With `O=C1c2ccccc2C2(O)Nc3cc(O)ccc3C12O` (configuration not stated), the GI50 in experiment [1], in [2], in [3], in experiment [4], in experiment [5] and in experiment [6] was > 100 µM (inactive) each time. The GI50 in experiment [8] was > 100 µM (inactive).

`Cc1ccc(C2CC(c3ccco3)=NN2c2ccccc2)o1` (configuration not stated): the GI50 in experiment [9], in experiment [2], in experiment [3], in experiment [4], in [6] and in [7] was > 100 µM (inactive) each time.

Regarding `O=C1C2c3[nH]c4ccccc4c3C3CCCCCC3C2C(=O)N1c1ccccc1` (configuration not stated), the GI50 in [1] is 19.5 µM (inactive); in [9], 22.9 µM (inactive); in [2] it was > 100 µM (inactive); in experiment [3], > 49.9 µM (inactive); in experiment [4] it was 37.8 µM (inactive); in experiment [6] it was 11.7 µM (inactive). Moreover, the GI50 in experiment [7] was > 58.1 µM (inactive); in [8], 58.2 µM (inactive).

In the case of `CCCCN(CCCC)CCCCNc1c(C)cnc2cc(Cl)ccc12`, the GI50 was 23 µM (inactive) in [1]; 14.4 µM (inactive) in experiment [9]; 11.3 µM (inactive) in experiment [2]; 15.9 µM (inactive) in experiment [3]; 13.7 µM (inactive) in experiment [5]; 55.3 µM (inactive) in experiment [6]. For the same compound, the GI50 in experiment [7] is 32.5 µM (inactive).

Consider `COCc1c(CO)cnc(C)c1OC1OC(CO)C(O)C(O)C1O` (configuration not stated), for which the GI50 in [9], in experiment [2], in [3], in experiment [4], in experiment [7] and in [8] was > 100 µM (inactive) in each case.

Turning to `Cn1c2ccccc2c(=O)c2c([N+](=O)[O-])ccc(NCCN)c21`, the GI50 was 13.3 µM (inactive) in [1]; 15.1 µM (inactive) in [9]; 10.1 µM (inactive) in experiment [2]; 11.5 µM (inactive) in [3]; 3.86 µM (inactive) in [4]; 14.5 µM (inactive) in experiment [6]. The GI50 in [7] was 13 µM (inactive).

In the case of `CCCNCC(=O)O[C@]1(CC)C(=O)OCc2c1cc1n(c2=O)Cc2cc3ccccc3nc2-1`, the GI50 is 0.123 µM (active) in experiment [1]; < 0.01 µM (active) in experiment [9]; 0.416 µM (active) in experiment [2]; 0.0187 µM (active) in experiment [3]; < 0.01 µM (active) in experiment [4]; 0.194 µM (active) in experiment [7]. For the same compound, the GI50 in experiment [8] is 2.07 µM (inactive).

In the case of `CC(=O)OCc1cc(OC(C)=O)cnc1COC(C)=O`, the GI50 in experiment [1], in experiment [9], in experiment [2], in experiment [3], in [4] and in experiment [5] was > 100 µM (inactive) each time. The GI50 in experiment [7] and in experiment [8] was > 100 µM (inactive) in each case.

On to `CC1(C)C(=O)/C=C\C(=O)C(C)(C)C2=CC=C(O2)C(C)(C)C(=O)/C=C\C(=O)C(C)(C)C2=CC=C1O2`, for which the GI50 in experiment [1], in experiment [9], in experiment [2], in [4], in [6] and in experiment [7] was > 100 µM (inactive) each time.

For the compound `C/C(CN1C(=O)c2ccccc2C1=O)=N\NS(=O)(=O)c1ccc2ccccc2c1`, the GI50 in experiment [1], in [2], in [3], in experiment [4], in [6] and in experiment [7] was > 100 µM (inactive) each time. Besides, the GI50 in experiment [8] is > 100 µM (inactive).

As to `COC1=CC(=O)C2C(C1=O)C(c1ccc(OC)c(OC)c1)[C@H]2C` (some centres not stated), the GI50 in experiment [1] was 20.7 µM (inactive); in [9] it was 16.2 µM (inactive); in experiment [2], 68.9 µM (inactive); in [3] it was 19.5 µM (inactive); in [4] it was 23.7 µM (inactive); in experiment [5], 16.4 µM (inactive). For the same compound, the GI50 in experiment [6] is > 100 µM (inactive); in experiment [7], 20.8 µM (inactive); in [8], 17.1 µM (inactive).

For `CCCCCCCCCCCC[N+]12CC[N+](CCN)(CC1)CC2`, the GI50 in [1] was 75.3 µM (inactive); in experiment [9], > 100 µM (inactive); in experiment [2], 62.4 µM (inactive); in experiment [3], 34.1 µM (inactive); in experiment [4] it was 14.8 µM (inactive); in [5] it was > 100 µM (inactive). Moreover, the figures for the GI50 in experiment [6], in experiment [7] and in experiment [8] were 77.8 µM (inactive), > 100 µM (inactive) and 82.8 µM (inactive), respectively.

Consider `CCOc1ccc(/C=C/c2cc(OC)c(OC)c(OC)c2)cc1`, for which the GI50 in [1] was > 75.2 µM (inactive); in experiment [9], 4.4 µM (inactive); in [2], 0.82 µM (active); in experiment [3], 1.36 µM (inactive); in experiment [4] it was 0.548 µM (active); in experiment [5], 0.879 µM (active). The GI50 is 0.341 µM (active) in experiment [6], 3.03 µM (inactive) in [7] and 1.9 µM (inactive) in [8].

On to `CC(C)[C@](O)(C(=O)OCC1=CC[N+]2([O-])CC[C@@H](O)[C@@H]12)[C@H](C)O` (some centres not stated) [INDICINE N-OXIDE], for which the GI50 in experiment [1] was > 10000 µM (inactive); in [2], > 10000 µM (inactive); in experiment [4], 6080 µM (inactive); in [6] it was > 10000 µM (inactive); in experiment [7], > 10000 µM (inactive); in experiment [8], > 10000 µM (inactive).
